These results are taken from patent publication US20220177510A1, “DERIVATIVES OF GYLCERO-MANNO-HEPTOSE ADP FOR USE IN MODULATING IMMUNE RESPONSE” (priority 2019, published 2022).

The target in experiment [1] is T1, ALPK1 (Homo sapiens, UniProt Q96QP1).
T1 construct: endogenous in cells; host or cells: HEK293 (A1); HEK293 stably expressing an NF-kB-alkaline phosphatase reporter (A2)
The experiment in a line: NF-kB promoter driven alkaline phosphatase reporter in HEK293 cells (pNPP assay). It counts as cell-based. The conditions noted are these: HEK293-NFkB-AP reporter cells treated 7 hours. As for the experimental part: NF-kB activation was assayed using HEK293 cells stably expressing an NF-kB reporter construct comprising an NF-kB promoter driving expression of alkaline phosphatase (AP). In this system, activation of NF-kB promoter activity drives the expression of AP which is detected using a chromogenic substrate, para-nitrophenyl phosphate (pNPP).
To assess the ALPK1 agonist activity of test compounds, the HEK293 cells were seeded in 96-well plates and allowed to attach overnight. Cells were then exposed to graded concentrations of compounds A1, A2, A3, A4, A18, A26, A27, A28, and A30. Compound 28 was included as a reference. Following treatment, cell culture supernatants were collected and analyzed for alkaline phosphatase activity using the pNPP assay. The results are shown in FIGS. 7A-7B and Table 2B-C below. The EC50 for each compound was determined using GraphPad Prism.

For experiment [2], the target named is T1, ALPK1. The experiment in a line: IL-8 secretion by HEK293 cells (IL-8 ELISA) as indication of ALPK1 activation. It counts as cell-based. The conditions noted are these: HEK293 cells treated 4 hours, FIG. 6, Table 2A. As for the experimental part: HEK293 cells were treated with H1b-ADP derivatives (A1, A2, A3, and A4) or with Compound 28 for 4 hours followed by analysis of IL-8 secretion using an IL-8 enzyme linked immunoassay (ELISA). IL-8 secretion is an indication of ALPK1 activation. The EC50 of each compound was determined using GraphPad Prism.
A general note: In an ELISA, binding on a coated surface is turned into a signal by an enzyme label.

T1 sequence (Q96QP1 whole entry): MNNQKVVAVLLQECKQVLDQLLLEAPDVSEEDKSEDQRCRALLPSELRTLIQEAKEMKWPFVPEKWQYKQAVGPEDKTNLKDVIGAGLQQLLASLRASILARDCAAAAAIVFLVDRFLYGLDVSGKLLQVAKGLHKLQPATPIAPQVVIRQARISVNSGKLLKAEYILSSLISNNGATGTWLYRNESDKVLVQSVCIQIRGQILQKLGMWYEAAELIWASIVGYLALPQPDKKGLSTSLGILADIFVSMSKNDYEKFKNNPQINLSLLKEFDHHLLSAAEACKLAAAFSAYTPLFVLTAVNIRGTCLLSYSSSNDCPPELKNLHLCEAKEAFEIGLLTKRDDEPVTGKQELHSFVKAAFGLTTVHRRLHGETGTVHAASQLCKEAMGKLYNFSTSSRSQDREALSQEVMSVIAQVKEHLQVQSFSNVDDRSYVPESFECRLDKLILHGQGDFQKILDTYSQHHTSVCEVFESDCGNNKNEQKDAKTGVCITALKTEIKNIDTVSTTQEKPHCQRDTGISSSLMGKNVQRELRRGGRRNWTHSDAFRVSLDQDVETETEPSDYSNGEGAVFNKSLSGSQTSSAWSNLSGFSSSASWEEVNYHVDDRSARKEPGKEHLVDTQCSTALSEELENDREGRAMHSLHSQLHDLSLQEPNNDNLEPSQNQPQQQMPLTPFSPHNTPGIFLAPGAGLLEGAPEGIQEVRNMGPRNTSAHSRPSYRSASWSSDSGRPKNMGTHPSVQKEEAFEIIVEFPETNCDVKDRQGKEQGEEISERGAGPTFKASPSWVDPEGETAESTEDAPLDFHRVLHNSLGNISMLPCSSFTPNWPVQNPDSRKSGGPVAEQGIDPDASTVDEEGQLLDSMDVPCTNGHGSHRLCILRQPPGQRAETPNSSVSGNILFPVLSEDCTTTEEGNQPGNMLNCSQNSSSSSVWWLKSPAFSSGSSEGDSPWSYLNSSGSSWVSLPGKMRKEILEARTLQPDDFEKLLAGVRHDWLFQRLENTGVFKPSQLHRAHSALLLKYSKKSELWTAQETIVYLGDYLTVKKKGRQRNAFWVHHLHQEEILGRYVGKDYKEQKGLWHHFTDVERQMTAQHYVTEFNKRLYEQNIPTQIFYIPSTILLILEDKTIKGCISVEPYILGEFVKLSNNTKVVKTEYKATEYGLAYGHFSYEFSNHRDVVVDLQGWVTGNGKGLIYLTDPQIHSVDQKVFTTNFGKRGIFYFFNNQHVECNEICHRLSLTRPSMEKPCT

As a reminder, the EC50 is the midpoint of the concentration-response curve. Compound `CC(=O)OC[C@H](F)C1O[C@@H](OP(=O)(O)OP(O)(=S)OC[C@H]2O[C@@H](n3cnc4c(NC(=O)c5ccccc5)ncnc43)C(O)C2O)C(OC(C)=O)C(OC(C)=O)[C@@H]1OC(C)=O` (stereo partly drawn) [Compound A27, (2S,3S,4S,5S,6S)-2-((S)-2-acetoxy-1-fluoroethyl)-6-(((((((2R,3S,4R,5R)-5-(6-benzamido-9H-purin-9-yl)-3,4-dihydroxytetrahydrofuran-2-yl)methoxy)(hydroxy)phosphorothioyl)oxy)(hydroxy)phosphoryl)oxy)tetrahydro-2H-pyran-3,4,5-triyl triacetate] gave an EC50 in experiment [1] (FIG. 7B, Table 2C) of 37.8 nM.

On to `CC(=O)OC[C@H](F)[C@H]1O[C@@H](OP(=O)(O)OP(O)(=S)OC[C@H]2O[C@@H](c3csc(C(N)=O)c3N)[C@H](O)[C@@H]2O)[C@@H](OC(C)=O)[C@@H](OC(C)=O)[C@@H]1OC(C)=O` (stereo partly drawn) [Compound A30, (2S,3S,4S,5S,6S)-2-((S)-2-acetoxy-1-fluoroethyl)-6-(((((((2R,3S,4R,5S)-5-(4-amino-5-carbamoylthiophen-3-yl)-3,4-dihydroxytetrahydrofuran-2-yl)methoxy)(hydroxy)phosphorothioyl)oxy)(hydroxy)phosphoryl)oxy)tetrahydro-2H-pyran-3,4,5-triyl triacetate], for which, in experiment [1] (FIG. 7B, Table 2C), the EC50 is 42.3 nM.

`CC(=O)OC[C@H](F)[C@H]1O[C@@H](OP(=O)(O)OP(O)(=S)OC[C@H]2O[C@@H](n3ncc4c(N)ncnc43)[C@H](O)[C@@H]2O)[C@@H](OC(C)=O)[C@@H](OC(C)=O)[C@@H]1OC(C)=O` (stereo partly drawn) [Compound A26, (2S,3S,4S,5S,6S)-2-((S)-2-acetoxy-1-fluoroethyl)-6-(((((((2R,3S,4R,5R)-5-(4-amino-1H-pyrazolo[3,4-d]pyrimidin-1-yl)-3,4-dihydroxytetrahydrofuran-2-yl)methoxy)(hydroxy)phosphorothioyl)oxy)(hydroxy)phosphoryl)oxy)tetrahydro-2H-pyran-3,4,5-triyl triacetate] came in with an EC50 in experiment [1] (FIG. 7B, Table 2C) of 10100 nM.

Regarding `CCCCCCCCCCCCCC(=O)OC[C@H](F)C1O[C@@H](OP(=O)(O)OP(O)(=S)OC[C@H]2O[C@@H](n3cnc4c(N)ncnc43)C(O)C2O)C(OC(C)=O)C(OC(C)=O)[C@@H]1OC(C)=O` (stereo partly drawn) [Compound A3, (2S,3S,4S,5S,6S)-2-(((((((2R,3S,4R,5R)-5-(6-amino-9H-purin-9-yl)-3,4-dihydroxytetrahydrofuran-2-yl)methoxy)(hydroxy)phosphorothioyl)oxy)(hydroxy)phosphoryl)oxy)-6-((S)-1-fluoro-2-(tetradecanoyloxy)ethyl)tetrahydro-2H-pyran-3,4,5-triyl triacetate], the EC50 in experiment [1] (FIG. 7A, Table 2B) was determined as 3.9 nM; in experiment [2], 2 nM.

As for `CCCCCCCCCCCCCCCCCC(=O)OC[C@H](F)[C@H]1O[C@@H](OP(=O)(O)OP(O)(=S)OC[C@H]2O[C@@H](n3cnc4c(N)ncnc43)[C@H](O)[C@@H]2O)[C@@H](OC(C)=O)[C@@H](OC(C)=O)[C@@H]1OC(C)=O` (stereo partly drawn) [Compound A1, (2S,3S,4S,5S,6S)-2-(((((((2R,3S,4R,5R)-5-(6-amino-9H-purin-9-yl)-3,4-dihydroxytetrahydrofuran-2-yl)methoxy)(hydroxy)phosphorothioyl)oxy)(hydroxy)phosphoryl)oxy)-6-((S)-1-fluoro-2-(stearoyloxy)ethyl)tetrahydro-2H-pyran-3,4,5-triyl triacetate], the EC50 in experiment [1] (FIG. 7A, Table 2B) stood at 11 nM; in experiment [2] it was 3.1 nM.

In experiment [1] (FIG. 7B, Table 2C), `CC(=O)OC[C@H](F)[C@H]1O[C@@H](OP(=O)(O)OP(O)(=S)OC[C@H]2O[C@@H](c3coc4c(N)ncnc34)[C@H](O)[C@@H]2O)[C@@H](OC(C)=O)[C@@H](OC(C)=O)[C@@H]1OC(C)=O` (stereo partly drawn) [Compound A28, (2S,3S,4S,5S,6S)-2-((S)-2-acetoxy-1-fluoroethyl)-6-(((((((2R,3S,4R,5S)-5-(4-aminofuro[3,2-d]pyrimidin-7-yl)-3,4-dihydroxytetrahydrofuran-2-yl)methoxy)(hydroxy)phosphorothioyl)oxy)(hydroxy)phosphoryl)oxy)tetrahydro-2H-pyran-3,4,5-triyl triacetate] had an EC50 of 3.9 nM.
